Test results: the NIST ThermoML archive (doi:10.1021/je2010209)

Assay: xn = mol fraction of the nth substance listed
Conditions: 101 kPa, Liquid; for speed of sound: Sing-around technique in a fixed-path interferometer; for mass density: Vibrating tube method

COCCOCCO [2-(2-methoxyethoxy)ethanol] + CCCCn1cc[n+](C)c1.F[B-](F)(F)F
Conditions | mass density [kg/m3] | speed of sound [m/s]
288.15 K, x2 = 0 | 1024.6 | 1451
288.15 K, x2 = 0.0308 | 1035.12 | 1461
288.15 K, x2 = 0.1053 | 1059.04 | 1490
288.15 K, x2 = 0.2065 | 1086.98 | 1514
288.15 K, x2 = 0.3137 | 1110.84 | 1533
288.15 K, x2 = 0.4002 | 1126.77 | 1544
288.15 K, x2 = 0.5035 | 1143.12 | 1559
288.15 K, x2 = 0.6083 | 1158.14 | 1568
288.15 K, x2 = 0.7023 | 1170.82 | 1575
288.15 K, x2 = 0.8291 | 1187.12 | 1580
288.15 K, x2 = 0.9381 | 1199.91 | 1583
293.15 K, x2 = 0 | 1020.2 | 1434
293.15 K, x2 = 0.0308 | 1030.69 | 1445
293.15 K, x2 = 0.1053 | 1054.73 | 1473
293.15 K, x2 = 0.2065 | 1082.85 | 1499
293.15 K, x2 = 0.3137 | 1106.71 | 1517
293.15 K, x2 = 0.4002 | 1122.56 | 1531
293.15 K, x2 = 0.5035 | 1138.99 | 1546
293.15 K, x2 = 0.6083 | 1154.16 | 1555
293.15 K, x2 = 0.7023 | 1167.07 | 1563
293.15 K, x2 = 0.8291 | 1183.25 | 1572
293.15 K, x2 = 0.9381 | 1196.01 | 1574
298.15 K, x2 = 0 | 1015.79 | 1416
298.15 K, x2 = 0.0308 | 1026.51 | 1428
298.15 K, x2 = 0.1053 | 1050.61 | 1457
298.15 K, x2 = 0.2065 | 1078.49 | 1483
298.15 K, x2 = 0.3137 | 1102.51 | 1503
298.15 K, x2 = 0.4002 | 1118.58 | 1518
298.15 K, x2 = 0.5035 | 1135.22 | 1533
298.15 K, x2 = 0.6083 | 1150.52 | 1543
298.15 K, x2 = 0.7023 | 1163.46 | 1551
298.15 K, x2 = 0.8291 | 1180 | 1560
298.15 K, x2 = 0.9381 | 1192.92 | 1563
303.15 K, x2 = 0 | 1011.36 | 1399
303.15 K, x2 = 0.0308 | 1022.02 | 1411
303.15 K, x2 = 0.1053 | 1046.36 | 1441
303.15 K, x2 = 0.2065 | 1074.58 | 1468
303.15 K, x2 = 0.3137 | 1098.6 | 1489
303.15 K, x2 = 0.4002 | 1114.55 | 1504
303.15 K, x2 = 0.5035 | 1131.18 | 1519
303.15 K, x2 = 0.6083 | 1146.73 | 1530
303.15 K, x2 = 0.7023 | 1160.08 | 1539
303.15 K, x2 = 0.8291 | 1176.92 | 1546
303.15 K, x2 = 0.9381 | 1189.62 | 1552
308.15 K, x2 = 0 | 1006.92 | 1382
308.15 K, x2 = 0.0308 | 1017.5 | 1395
308.15 K, x2 = 0.1053 | 1042 | 1425
308.15 K, x2 = 0.2065 | 1070.56 | 1453
308.15 K, x2 = 0.3137 | 1094.68 | 1474
308.15 K, x2 = 0.4002 | 1110.65 | 1490
308.15 K, x2 = 0.5035 | 1127.3 | 1506
308.15 K, x2 = 0.6083 | 1142.95 | 1517
308.15 K, x2 = 0.7023 | 1156.36 | 1526
308.15 K, x2 = 0.8291 | 1173.24 | 1534
308.15 K, x2 = 0.9381 | 1185.91 | 1540
313.15 K, x2 = 0 | 1002.47 | 1366
313.15 K, x2 = 0.0308 | 1013.14 | 1378
313.15 K, x2 = 0.1053 | 1037.68 | 1409
313.15 K, x2 = 0.2065 | 1066.49 | 1437
313.15 K, x2 = 0.3137 | 1090.91 | 1460
313.15 K, x2 = 0.4002 | 1107.01 | 1477
313.15 K, x2 = 0.5035 | 1123.64 | 1493
313.15 K, x2 = 0.6083 | 1139.19 | 1505
313.15 K, x2 = 0.7023 | 1152.49 | 1514
313.15 K, x2 = 0.8291 | 1169.38 | 1523
313.15 K, x2 = 0.9381 | 1182.2 | 1529
318.15 K, x2 = 0 | 998.009 | 1349
318.15 K, x2 = 0.0308 | 1008.9 | 1362
318.15 K, x2 = 0.1053 | 1033.44 | 1393
318.15 K, x2 = 0.2065 | 1062 | 1422
318.15 K, x2 = 0.3137 | 1086.38 | 1447
318.15 K, x2 = 0.4002 | 1102.75 | 1464
318.15 K, x2 = 0.5035 | 1119.79 | 1480
318.15 K, x2 = 0.6083 | 1135.51 | 1494
318.15 K, x2 = 0.7023 | 1148.84 | 1503
318.15 K, x2 = 0.8291 | 1165.68 | 1512
318.15 K, x2 = 0.9381 | 1178.57 | 1519
